What was measured:
[1] = system: Boophilus microplus Biarra (larvae); test: Arena test in vitro against Boophilus microplus Biarra (larvae); details: ca. 60 to 100 per well, video evaluation
Description: This method is carried out in titre plates having 6 wells with a cross-section of 5 cm each, using a computer-supported video system. Each well of the titre plate is lined with a circular filter paper or another suitable carrier material. The substance of formula I to be tested is dissolved in methanol, acetonitrile or another suitable solvent, with ultrasound treatment and heating being employed for poorly-soluble substances. In an amount of 1 to 100 μg/cm^2, the dissolved test substance is placed in the centre of the filter paper on a quadrant or circular area of ca. 2.4 cm^2 radius. 4 of the 6 wells are filled with different test substances or with the same test substance in different dilutions (e.g. 1, 3.2, 5, 10 and 20 μg/cm^2). The 5th well is treated with DEET (N,N-diethyl-m-toluamide) as standard substance. The 6th well is filled with the pure solvent and serves as a control. 60 to 100 larvae or 25 to 50 nymphs or 10 to 25 adults of the parasite to be tested, e.g. ticks, are added to each filter paper, and the system is covered with a pane of glass and positioned under a video camera. At intervals of 5 seconds, the video camera takes individual pictures of all 6 wells. For a qualitative evaluation, these images are observed in a time-lapse as a continuous film, optically following the movements of the parasites on the filter paper and comparing them with the movements in the control well no. 6 or with the standard in the 5th well. A qualitative observation is thus made as to whether the test parasites move evenly over the whole surface of the filter paper and ignore the test substance, or whether and over what period they avoid the treated zone, and what influence the dilution of the test substance has on the behaviour of the test parasites. In this way, neutral and deterring substances are determined. At the same time, the duration of activity of the test substance is determined and compared with that of the standard. By plotting all the images for each individual well over one another, different areas of density are obtained. This represents the frequency at which the parasites visit certain places. This frequency is evaluated statistically and thus quantitatively by the Willcoxon method in a comparison with the control and with the standard. […] Arena Test In Vitro Against Boophilus microplus Biarra (larvae) The test is carried out as described above, with ca. 60 to 100 larvae being added per well. 10 mg of dissolved test substance is applied to an area of 2.4 cm^2 radius. […] Particularly marked long-term activity is shown for example by using the compounds Nos. 1.001, 2.001, 3.001, 4.001, 5.001, 5.184, 5.185, and 5.186 even up to a dilution of 10 μg/cm^2.

[2] = system: Amblyomma hebraeum or variegatum (nymphs); test: Arena test in vitro against Amblyomma hebraeum or variegatum (nymphs); details: ca. 25 to 50 per well, video evaluation
Description: This method is carried out in titre plates having 6 wells with a cross-section of 5 cm each, using a computer-supported video system. Each well of the titre plate is lined with a circular filter paper or another suitable carrier material. The substance of formula I to be tested is dissolved in methanol, acetonitrile or another suitable solvent, with ultrasound treatment and heating being employed for poorly-soluble substances. In an amount of 1 to 100 μg/cm^2, the dissolved test substance is placed in the centre of the filter paper on a quadrant or circular area of ca. 2.4 cm^2 radius. 4 of the 6 wells are filled with different test substances or with the same test substance in different dilutions (e.g. 1, 3.2, 5, 10 and 20 μg/cm^2). The 5th well is treated with DEET (N,N-diethyl-m-toluamide) as standard substance. The 6th well is filled with the pure solvent and serves as a control. 60 to 100 larvae or 25 to 50 nymphs or 10 to 25 adults of the parasite to be tested, e.g. ticks, are added to each filter paper, and the system is covered with a pane of glass and positioned under a video camera. At intervals of 5 seconds, the video camera takes individual pictures of all 6 wells. For a qualitative evaluation, these images are observed in a time-lapse as a continuous film, optically following the movements of the parasites on the filter paper and comparing them with the movements in the control well no. 6 or with the standard in the 5th well. A qualitative observation is thus made as to whether the test parasites move evenly over the whole surface of the filter paper and ignore the test substance, or whether and over what period they avoid the treated zone, and what influence the dilution of the test substance has on the behaviour of the test parasites. In this way, neutral and deterring substances are determined. At the same time, the duration of activity of the test substance is determined and compared with that of the standard. By plotting all the images for each individual well over one another, different areas of density are obtained. This represents the frequency at which the parasites visit certain places. This frequency is evaluated statistically and thus quantitatively by the Willcoxon method in a comparison with the control and with the standard. […] Arena Test In Vitro Against Amblyomma hebraeum or variegatum (nymphs) The test is carried out as described above, with ca. 25 to 50 nymphs being added per well. 10 mg of dissolved test substance is applied to an area of 2.4 cm^2 radius. […] Particularly marked long-term activity is shown for example by using the compounds Nos. 1.001, 2.001, 3.001, 4.001, 5.001, 5.184, 5.185, and 5.186 even up to a dilution of 3.2 μg/cm^2.

[3] = system: Rhipicephalus sanguineus (nymphs); test: Arena test in vitro against Rhipicephalus sanguineus (nymphs); details: ca. 40 to 50, video evaluation
Description: This method is carried out in titre plates having 6 wells with a cross-section of 5 cm each, using a computer-supported video system. Each well of the titre plate is lined with a circular filter paper or another suitable carrier material. The substance of formula I to be tested is dissolved in methanol, acetonitrile or another suitable solvent, with ultrasound treatment and heating being employed for poorly-soluble substances. In an amount of 1 to 100 μg/cm^2, the dissolved test substance is placed in the centre of the filter paper on a quadrant or circular area of ca. 2.4 cm^2 radius. 4 of the 6 wells are filled with different test substances or with the same test substance in different dilutions (e.g. 1, 3.2, 5, 10 and 20 μg/cm^2). The 5th well is treated with DEET (N,N-diethyl-m-toluamide) as standard substance. The 6th well is filled with the pure solvent and serves as a control. 60 to 100 larvae or 25 to 50 nymphs or 10 to 25 adults of the parasite to be tested, e.g. ticks, are added to each filter paper, and the system is covered with a pane of glass and positioned under a video camera. At intervals of 5 seconds, the video camera takes individual pictures of all 6 wells. For a qualitative evaluation, these images are observed in a time-lapse as a continuous film, optically following the movements of the parasites on the filter paper and comparing them with the movements in the control well no. 6 or with the standard in the 5th well. A qualitative observation is thus made as to whether the test parasites move evenly over the whole surface of the filter paper and ignore the test substance, or whether and over what period they avoid the treated zone, and what influence the dilution of the test substance has on the behaviour of the test parasites. In this way, neutral and deterring substances are determined. At the same time, the duration of activity of the test substance is determined and compared with that of the standard. By plotting all the images for each individual well over one another, different areas of density are obtained. This represents the frequency at which the parasites visit certain places. This frequency is evaluated statistically and thus quantitatively by the Willcoxon method in a comparison with the control and with the standard. […] Arena Test In Vitro Against Rhipicephalus sanguineus (nymphs) A test is carried out analogously to example B using ca. 40 to 50 nymphs. […] In particular, the compounds are notable for their almost complete deterring action, which lasts considerably longer than that of DEET. Particularly marked long-term activity is shown for example by compounds Nos. 1.001, 2.001, 3.001, 4.001, 5.001, 5.184, 5.185, and 5.186 even up to a dilution of 10 μg/cm^2.

[4] = system: various parasites, e.g. ticks; test: Arena test: general method for testing vermin-deterring substances; details: 1 to 100 μg/cm^2 on filter paper, video evaluation
Description: Arena Test: General Method for Testing Vermin-Deterring Substances
This method is carried out in titre plates having 6 wells with a cross-section of 5 cm each, using a computer-supported video system. Each well of the titre plate is lined with a circular filter paper or another suitable carrier material. The substance of formula I to be tested is dissolved in methanol, acetonitrile or another suitable solvent, with ultrasound treatment and heating being employed for poorly-soluble substances. In an amount of 1 to 100 μg/cm^2, the dissolved test substance is placed in the centre of the filter paper on a quadrant or circular area of ca. 2.4 cm^2 radius. 4 of the 6 wells are filled with different test substances or with the same test substance in different dilutions (e.g. 1, 3.2, 5, 10 and 20 μg/cm^2). The 5th well is treated with DEET (N,N-diethyl-m-toluamide) as standard substance. The 6th well is filled with the pure solvent and serves as a control. 60 to 100 larvae or 25 to 50 nymphs or 10 to 25 adults of the parasite to be tested, e.g. ticks, are added to each filter paper, and the system is covered with a pane of glass and positioned under a video camera.
At intervals of 5 seconds, the video camera takes individual pictures of all 6 wells. For a qualitative evaluation, these images are observed in a time-lapse as a continuous film, optically following the movements of the parasites on the filter paper and comparing them with the movements in the control well no. 6 or with the standard in the 5th well. A qualitative observation is thus made as to whether the test parasites move evenly over the whole surface of the filter paper and ignore the test substance, or whether and over what period they avoid the treated zone, and what influence the dilution of the test substance has on the behaviour of the test parasites. In this way, neutral and deterring substances are determined. At the same time, the duration of activity of the test substance is determined and compared with that of the standard. By plotting all the images for each individual well over one another, different areas of density are obtained. This represents the frequency at which the parasites visit certain places. This frequency is evaluated statistically and thus quantitatively by the Willcoxon method in a comparison with the control and with the standard.

| SMILES | dilution up to which particularly marked long-term activity is shown [1] | dilution up to which particularly marked long-term activity is shown [2] | dilution up to which particularly marked long-term activity is shown [3] | vermin-deterring activity in the arena test [4] |
| --- | --- | --- | --- | --- |
| OC1CCCN(Cc2ccccc2)C1 (stereo not drawn) [Compound 4.001] | 10 μg/cm^2 | 3.2 μg/cm^2 | 10 μg/cm^2 | excellent activity |
| OCC1CCCCN1Cc1ccccc1 (stereo not drawn) [Compound 1.001] | 10 μg/cm^2 | 3.2 μg/cm^2 | 10 μg/cm^2 | excellent activity |
| OCC1CCCN1Cc1ccccc1 (stereo not drawn) [Compound 2.001] | 10 μg/cm^2 | 3.2 μg/cm^2 | 10 μg/cm^2 | excellent activity |
| CC(CO)N(Cc1ccccc1)Cc1ccccc1 (stereo not drawn) [Compound 5.184] | 10 μg/cm^2 | 3.2 μg/cm^2 | 10 μg/cm^2 | excellent activity |
| OCCN(Cc1ccccc1)Cc1ccccc1 [Compound 5.001] | 10 μg/cm^2 | 3.2 μg/cm^2 | 10 μg/cm^2 | excellent activity |
| OC1CCN(Cc2ccccc2)C1 (stereo not drawn) [Compound 3.001, 1-Benzyl-pyrrolidin-3-ol] | 10 μg/cm^2 | 3.2 μg/cm^2 | 10 μg/cm^2 | excellent activity |

Reference: US8338490B2, “Composition for repelling and deterring vermin” (Novartis AG, priority 2006, dated 2012)
